The text below walks through data of PubChem BioAssay (NCI).

The structures appear in SMILES notation.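 These data come from cells grown in 96-well plates and exposed to compound for 48 hours at five concentrations. GI50 marks 50% less growth. TGI denotes the concentration required for complete inhibition of growth.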

Holding throughout (test): NCI-60 cell line screen, 48 h
In assay [1] the test system is HCC-2998 colon.
For assay [2], the system named is HCT-15 colon.
Assay [3] concerns K-562 leukemia.
For assay [4], the system named is LOX IMVI melanoma.
Assay [5] concerns OVCAR-3 ovarian.
For assay [6], the system named is OVCAR-8 ovarian.
For assay [7], the system named is SF-268 CNS.
Assay [8] concerns SF-539 CNS.
Assay [9] relates to A498 renal.
Assay [10] has as its system NCI-H23 lung.

With `Cc1cc2c(C(C)C)c(O)c(O)c(C=Nc3ccccc3)c2c(O)c1-c1c(C)cc2c(C(C)C)c(O)c(O)c(C=Nc3ccccc3)c2c1O`, the TGI in assay [1], in assay [2], in assay [3], in assay [4], in [5] and in assay [6] was greater than 100 µM each time. In addition, the TGI in assay [7] and in assay [8] was greater than 100 µM throughout.
For `CC1=C/C(=C2/N=C(N(C)C)SS2)C(C)=N1`, the TGI in assay [9], in [1], in [2], in assay [3], in assay [4] and in [10] was greater than 100 µM each time. The TGI in assay [5], in assay [6], in assay [7] and in assay [8] was greater than 100 µM throughout.
As for `CCCCS(=O)CC(CO)NC(=O)/C=C/c1c(C)[nH]c(=O)[nH]c1=O` (centres undefined), the TGI in assay [9] was found to be 32.5 µM; in [1] it was 30 µM; in [2], 183 µM; in [3], 82.1 µM; in assay [4] it was 40.9 µM; in [10], 44.6 µM. The TGI was determined as 15 µM in [5], 32.4 µM in [6], 20.8 µM in [7] and 35.4 µM in assay [8].
As for `C[C@]12CCc3sc(-c4cccc(F)c4)nc3C1=CC[C@@H]1[C@@H]2CC[C@]2(C)C(=O)CC[C@@H]12`, the GI50 in assay [9] is 3.2 µM; in [1] it was 3.19 µM; in [2], 1.56 µM; in assay [3], 1.82 µM; in assay [4] it was 1.74 µM; in [10], 3.54 µM. In addition, the GI50 was 1.92 µM in assay [5], 3.45 µM in assay [6], 3.15 µM in [7] and 1.04 µM in assay [8]. Moreover, the TGI in assay [9] is 17.9 µM; in assay [1], greater than 100 µM; in assay [2] it was 4.17 µM; in assay [3], 9.08 µM; in [4], 3.36 µM; in assay [10], 33.5 µM. Besides, the TGI was 3.79 µM in [5], greater than 100 µM in assay [6], 18.9 µM in assay [7] and 2.48 µM in assay [8].
Consider `O=C1CCCN1CCCN=c1cc2n(-c3ccc(Cl)cc3)c3ccccc3nc-2cc1Nc1ccc(Cl)cc1`, for which the TGI in assay [9] was determined as 43.2 µM; in assay [1], 18.1 µM; in assay [2] it was 20 µM; in assay [3], 30 µM; in [4], 28.2 µM; in assay [10] it was 25.1 µM. Also, the TGI in [5] was 6.18 µM; in [6] it was 53.2 µM; in assay [7], greater than 100 µM; in assay [8] it was 28.2 µM.
Consider `O=c1c2c3c(sc2nc2n1N=C(c1ccc([N+](=O)[O-])cc1)CS2)CCCC3`, for which the TGI in assay [9], in assay [1], in [2], in assay [3], in assay [4] and in assay [10] was greater than 100 µM in each case. Further, the TGI in assay [5], in assay [6], in assay [7] and in assay [8] was greater than 100 µM throughout.
As to `Cn1c(=O)c2nc(NCCO)cnc2n(C)c1=O`, the TGI in assay [9] was greater than 100 µM; in [1] it was greater than 100 µM; in assay [2], greater than 100 µM; in [3] it was greater than 100 µM; in [10], greater than 100 µM; in [5], 57.9 µM. Moreover, the TGI was greater than 100 µM in [6], greater than 100 µM in assay [7] and 88.7 µM in assay [8].
Consider `O=C(c1ccccc1)c1nn(-c2ccccc2)c2nc3nc(-c4ccccc4)cc(=O)n3nc12`, for which the GI50 in assay [9] is 44.8 µM; in assay [1], 32.6 µM; in assay [2], 36.3 µM; in [3], 21.2 µM; in assay [4] it was 25.8 µM; in [10], 33.1 µM. The GI50 in [5] was 19.9 µM; in assay [6], 27.1 µM; in assay [8], 19.2 µM. For the same compound, the TGI in assay [9] is greater than 100 µM; in [1] it was 60.2 µM; in [2] it was greater than 100 µM; in assay [3], 66.7 µM; in assay [4], 78.7 µM; in [10], greater than 100 µM. For the same compound, the values for the TGI in assay [5], in assay [6] and in [8] were 49.5 µM, 84.8 µM and 38.6 µM, respectively.
For the compound `CCc1c(C)c2ccc(OCC(=O)N=Nc3c(O)[nH]c4ccccc34)c(C)c2oc1=O`, the GI50 in [9] was greater than 33.3 µM; in assay [3], 1.19 µM; in assay [4], 0.832 µM; in [10], 1.13 µM; in assay [8] it was greater than 33.3 µM. In addition, the TGI in assay [9] was greater than 33.3 µM; in assay [3], greater than 33.3 µM; in assay [4] it was greater than 7.31 µM; in assay [10], greater than 33.3 µM; in assay [8], greater than 33.3 µM.
Regarding `O=C1CSC(C(N=Nc2ccc(Cl)cc2)c2nc3ccccc3[nH]2)=N1` (centres undefined), the TGI in [9], in [1], in assay [2], in assay [3], in assay [10] and in [5] was greater than 100 µM throughout. Besides, the TGI in [6] was greater than 100 µM; in assay [7], greater than 100 µM; in assay [8], 52.9 µM.
Consider `NC(=O)SCC(=O)Nc1ccc2ncccc2c1`, for which the TGI in assay [9], in assay [1], in assay [2], in assay [3], in assay [4] and in [10] was greater than 100 µM in each case. The TGI in assay [5], in [6], in assay [7] and in [8] was greater than 100 µM in each case.
